Earlier results, collected in article PMC4336743, “Improved production of sublancin via introduction of three characteristic promoters into operon clusters responsible for this novel distinct glycopeptide biosynthesis” (Microbial Cell Factories, 2015).

Key:
proteinases, peptidases = tested on: proteinases, peptidases
Description: Proteolytic susceptibility of sublancin should also be considered in various applications such as in treating bacterial–mediated mastitis or bacterial–mediated gastroenteritis. Therefore, a number of bacterial proteases and gastrointestinal digestive enzymes, e.g., P. aeruginosa elastase and S. aureus V8 protease, pepsin and trypsin would certainly be encountered. […] All experiments were performed in vitro; therefore in vivo studies should be conducted prior to clinical ap ...

S. aureus = tested on: S. aureus
Description: Antibacterial activity and cytotoxicity of sublancin were also evaluated. […] These findings are consistent with previously reported study and is almost equal to that of nisin that is a common and typical antimicrobial peptide from Lactococcus lactis, and is widely used in clinical and food preservation applications, with MIC of 0.5 mg/L against S. aureus.

Substance | antimicrobial potency after exposure to proteinases, peptidases and heat (proteinases, peptidases) | MIC against S. aureus (S. aureus)
Bovicin HC5 | remarkable antimicrobial potency reduction | –
nisin | – | 0.5 µg/mL
